ChEMBL document CHEMBL2146431, “Phosphoramidate derivatives of acyclovir: synthesis and antiviral activity in HIV-1 and HSV-1 models in vitro” (Bioorg Med Chem, 2012)
Active and inactive are the calls of the source. No cut-off for these calls is given here.

test system: not listed separately; assay: Chemical stability of the compound in KCl/HCl buffer at pH 2 assessed as monoamidate formation by TLC analysis; assay type: physicochemical; conditions: not given

| SMILES | Stability |
| --- | --- |
| CCCCCCNP(=O)(NCCCCCC)OCCOCn1cnc2c(=O)[nH]c(N)nc21 | Stable |
| Nc1nc2c(ncn2COCCOP(=O)(N2CCOCC2)N2CCOCC2)c(=O)[nH]1 | Stable |

test system: Human immunodeficiency virus 1; assay: Antiviral activity against HIV1 pseudovirus infected in Jurkat cells coexpressing GFP assessed as viral growth inhibition up to 100 uM incubated for 2 to 8 hrs prior to infection measured after 48 hrs by flow cytofluorimetric analysis; assay type: functional, organism-based; conditions: not given

| SMILES | growth inhibition (GI) |
| --- | --- |
| N.Nc1nc2c(ncn2COCCOP(=O)(O)N2CCCC2)c(=O)[nH]1 | Active |
| CCCCCCNP(=O)(O)OCCOCn1cnc2c(=O)[nH]c(N)nc21.N | Active |
| N.Nc1nc2c(ncn2COCCOP(=O)(O)NCCN2CCOCC2)c(=O)[nH]1 | Active |

test system: Human alphaherpesvirus 1; assay: Antiviral activity against acyclovir-resistant HSV1 L2 infected in Vero E6 cells assessed as inhibition of virus-induced cytopathic effect after 48 hrs; assay type: functional, organism-based; conditions: Human alphaherpesvirus 1, L2, Vero

| SMILES | EC50 |
| --- | --- |
| Nc1nc2c(ncn2COCCOP(=O)(N2CCOCC2)N2CCOCC2)c(=O)[nH]1 | > 500 µM |

test system: not listed separately; assay: Half life of the compound in phosphate buffer at pH 7.4 assessed as acyclovir formation by TLC analysis; assay type: physicochemical; conditions: not given

| SMILES | t1/2 |
| --- | --- |
| N.Nc1nc2c(ncn2COCCOP(=O)(O)N2CCCC2)c(=O)[nH]1 | > 120 h |
| CCCCCCNP(=O)(O)OCCOCn1cnc2c(=O)[nH]c(N)nc21.N | > 120 h |
| CN(C)CCNP(=O)(O)OCCOCn1cnc2c(=O)[nH]c(N)nc21.N | > 120 h |
| N.Nc1nc2c(ncn2COCCOP(=O)(O)NCCN2CCOCC2)c(=O)[nH]1 | > 120 h |
| CN(C)CCCNP(=O)(O)OCCOCn1cnc2c(=O)[nH]c(N)nc21.N | > 120 h |
| CCCCCCNP(=O)(NCCCCCC)OCCOCn1cnc2c(=O)[nH]c(N)nc21 | 5 h |
| Nc1nc2c(ncn2COCCOP(=O)(N2CCOCC2)N2CCOCC2)c(=O)[nH]1 | > 120 h |

test system: Human immunodeficiency virus 1; assay: Antiviral activity against HIV1 pseudovirus infected in Jurkat cells coexpressing GFP assessed as viral growth inhibition incubated for 2 to 8 hrs prior to infection measured after 48 hrs by flow cytofluorimetric analysis; assay type: functional, organism-based; conditions: not given

| SMILES | growth inhibition (GI) |
| --- | --- |
| N.Nc1nc2c(ncn2COCCOP(=O)(O)N2CCCC2)c(=O)[nH]1 | Dose-dependent effect |
| CCCCCCNP(=O)(O)OCCOCn1cnc2c(=O)[nH]c(N)nc21.N | Dose-dependent effect |
| N.Nc1nc2c(ncn2COCCOP(=O)(O)NCCN2CCOCC2)c(=O)[nH]1 | Dose-dependent effect |

test system: not listed separately; assay: Half life of the compound in KCl/HCl buffer at pH 2 assessed as acyclovir monophosphate formation by TLC analysis; assay type: physicochemical; conditions: not given

| SMILES | t1/2 |
| --- | --- |
| N.Nc1nc2c(ncn2COCCOP(=O)(O)N2CCCC2)c(=O)[nH]1 | < 0.083 h |
| CCCCCCNP(=O)(O)OCCOCn1cnc2c(=O)[nH]c(N)nc21.N | < 0.083 h |
| CN(C)CCNP(=O)(O)OCCOCn1cnc2c(=O)[nH]c(N)nc21.N | < 0.083 h |
| N.Nc1nc2c(ncn2COCCOP(=O)(O)NCCN2CCOCC2)c(=O)[nH]1 | < 0.083 h |
| CN(C)CCCNP(=O)(O)OCCOCn1cnc2c(=O)[nH]c(N)nc21.N | < 0.083 h |
| CCCCCCNP(=O)(NCCCCCC)OCCOCn1cnc2c(=O)[nH]c(N)nc21 | 0.083 h |
| Nc1nc2c(ncn2COCCOP(=O)(N2CCOCC2)N2CCOCC2)c(=O)[nH]1 | 0.5 h |

test system: Human alphaherpesvirus 1; assay: Antiviral activity against HSV1 L2 infected in Vero E6 cells assessed as inhibition of virus-induced cytopathic effect after 48 hrs; assay type: functional, organism-based; conditions: Human alphaherpesvirus 1, L2, Vero

| SMILES | EC50 |
| --- | --- |
| Nc1nc2c(ncn2COCCOP(=O)(N2CCOCC2)N2CCOCC2)c(=O)[nH]1 | > 500 µM |

test system: not listed separately; assay: Half life of the compound in KCl/KOH buffer at pH 12 assessed as acyclovir and acyclovir monophosphate formation by TLC analysis; assay type: physicochemical; conditions: not given

| SMILES | t1/2 |
| --- | --- |
| N.Nc1nc2c(ncn2COCCOP(=O)(O)N2CCCC2)c(=O)[nH]1 | 96 h |
| CCCCCCNP(=O)(O)OCCOCn1cnc2c(=O)[nH]c(N)nc21.N | 48 h |
| CN(C)CCNP(=O)(O)OCCOCn1cnc2c(=O)[nH]c(N)nc21.N | 48 h |
| N.Nc1nc2c(ncn2COCCOP(=O)(O)NCCN2CCOCC2)c(=O)[nH]1 | 48 h |
| CN(C)CCCNP(=O)(O)OCCOCn1cnc2c(=O)[nH]c(N)nc21.N | 48 h |

test system: not listed separately; assay: Cytotoxicity against african green monkey Vero E6 cells after 72 hrs by trypan blue staining; assay type: cell-based; conditions: chlorocebus sabaeus

| SMILES | CC50 at 72 h |
| --- | --- |
| Nc1nc2c(ncn2COCCOP(=O)(N2CCOCC2)N2CCOCC2)c(=O)[nH]1 | > 2000 µM |

test system: not listed separately; assay: Half life of the compound in KCl/KOH buffer at pH 12 assessed as acyclovir formation by TLC analysis; assay type: physicochemical; conditions: not given

| SMILES | t1/2 |
| --- | --- |
| CCCCCCNP(=O)(NCCCCCC)OCCOCn1cnc2c(=O)[nH]c(N)nc21 | 1 h |
| Nc1nc2c(ncn2COCCOP(=O)(N2CCOCC2)N2CCOCC2)c(=O)[nH]1 | 18 h |

test system: Jurkat; assay: Cytotoxicity against human Jurkat cells up to 2000 uM after 48 hrs by trypan blue staining; assay type: cell-based; conditions: not given

| SMILES | Activity |
| --- | --- |
| N.Nc1nc2c(ncn2COCCOP(=O)(O)N2CCCC2)c(=O)[nH]1 | Non-toxic |
| CCCCCCNP(=O)(O)OCCOCn1cnc2c(=O)[nH]c(N)nc21.N | Non-toxic |
| CN(C)CCNP(=O)(O)OCCOCn1cnc2c(=O)[nH]c(N)nc21.N | Non-toxic |
| N.Nc1nc2c(ncn2COCCOP(=O)(O)NCCN2CCOCC2)c(=O)[nH]1 | Non-toxic |
| CN(C)CCCNP(=O)(O)OCCOCn1cnc2c(=O)[nH]c(N)nc21.N | Non-toxic |
| CCCCCCNP(=O)(NCCCCCC)OCCOCn1cnc2c(=O)[nH]c(N)nc21 | Non-toxic |
| Nc1nc2c(ncn2COCCOP(=O)(N2CCOCC2)N2CCOCC2)c(=O)[nH]1 | Non-toxic |
